Values after ≈ are worked out from the molar mass of the structure shown.
How the values were obtained:
Type in all cases: ADME
[1] = Solubility of the compound in fasted simulated intestinal fluid after 4 hrs
[2] = Stability of the compound in simulated gastric fluid after 24 hrs at 37 degC; conditions: simulated gi fluid
[3] = Passive permeability of the compound by PAMPA assay; conditions: read-out: permeability

CC(C)S(=O)(=O)c1c(Cl)ccc(Nc2nc(=O)cc(C(C)(C)C)[nH]2)c1O
solubility at 4 h [1]: 33 µg/mL (≈ 82.5 µM) | Stability [2]: Stable | Papp [3]: 37 ×10⁻⁶ cm/s

Reference: ChEMBL document CHEMBL3351964, “2-Aminopyrimidin-4(1H)-one as the novel bioisostere of urea: discovery of novel and potent CXCR2 antagonists” (Bioorg Med Chem Lett, 2014)
